In brackets after ≈: the same amount, converted by molar mass. Activity calls are given as the source filed them. The calls are words filed in the database; no cut-off is given here.
Tests used:
HT-1080 = assay: cells; settings: Homo sapiens, HT-1080, 72 h
GCT = assay: cells; settings: Homo sapiens, 72 h
[1] = Kinetic solubility of the compound in DPBS buffer at pH 7.4 incubated for 16 hrs under shaking condition by HPLC analysis; format: physicochemical; settings: read-out: Kinetic_solubility
RD = assay: cells; settings: Homo sapiens, 72 h
MCF7 = assay: cells; settings: Homo sapiens, MCF7, 72 h
[2] = Metabolic stability in CD-1 mouse liver microsomes assessed as half life at 100 uM measured upto 60 mins in presence of NADPH by LC-MS/MS analysis; format: ADME, Microsome; settings: for t1/2: mouse, microsomes, 1 h, 100 µM
[3] = Metabolic stability in CD-1 mouse liver microsomes assessed as intrinsic clearance at 100 uM measured upto 60 mins in presence of NADPH by LC-MS/MS analysis; format: ADME, Microsome; settings: for microsomal intrinsic clearance: mouse, microsomes, 1 h, 100 µM
[4] = Metabolic stability in CD-1 mouse liver microsomes assessed as parent compound remaining at 100 uM measured after 60 mins in presence of NADPH by LC-MS/MS analysis; format: ADME, Microsome; settings: read-out: Stability
Vimentin (Homo sapiens) [5] = biological target: Vimentin (Homo sapiens) (UniProt P08670); assay: Induction of Vimentin phosphorylation in human HT-1080 cells at 1 uM incubated for 24 hrs by Western blot analysis; format: cell-based
Vimentin (Homo sapiens) [6] = biological target: Vimentin (Homo sapiens) (UniProt P08670); assay: Induction of Vimentin phosphorylation in human GCT cells at 1 uM incubated for 24 hrs by Western blot analysis; format: cell-based
Vimentin (Homo sapiens) [7] = biological target: Vimentin (Homo sapiens) (UniProt P08670); assay: Induction of Vimentin phosphorylation in human RD cells at 1 uM incubated for 24 hrs by Western blot analysis; format: cell-based
[8] = AUC (0 to last) in mouse at 10 mg/kg, po by LC-MS/MS analysis; format: ADME, organism-based; design: dose 10 mg/kg, route po; settings: in vivo
[9] = Tmax in mouse at 1 mg/kg, ip by LC-MS/MS analysis; format: ADME, organism-based; settings: in vivo
[10] = Cmax in mouse at 1 mg/kg, ip by LC-MS/MS analysis; format: ADME, organism-based; design: dose 1 mg/kg, route ip; settings: in vivo
Vimentin (Homo sapiens) [11] = biological target: Vimentin (Homo sapiens) (UniProt P08670); assay: Induction of Vimentin phosphorylation in human RD cells at 100 nM incubated for 24 hrs by Western blot analysis; format: cell-based; settings: filed as activator
[12] = Oral bioavailability in mouse at 10 mg/kg by LC-MS/MS analysis; format: ADME, organism-based; settings: in vivo
[13] = Tlast in mouse at 1 mg/kg, ip by LC-MS/MS analysis; format: ADME, organism-based; settings: in vivo
[14] = Cmax in mouse at 10 mg/kg, po by LC-MS/MS analysis; format: ADME, organism-based; design: dose 10 mg/kg, route po; settings: in vivo
Vimentin (Homo sapiens) [15] = biological target: Vimentin (Homo sapiens) (UniProt P08670); assay: Induction of Vimentin phosphorylation in human HT-1080 cells at 100 nM incubated for 24 hrs by Western blot analysis; format: cell-based; settings: filed as activator
Vimentin (Homo sapiens) [16] = biological target: Vimentin (Homo sapiens) (UniProt P08670); assay: Induction of Vimentin phosphorylation in human GCT cells at 100 nM incubated for 24 hrs by Western blot analysis; format: cell-based; settings: filed as activator
[17] = AUC (0 to last) in mouse at 1 mg/kg, ip by LC-MS/MS analysis; format: ADME, organism-based; design: dose 1 mg/kg, route ip; settings: in vivo
[18] = Half life in mouse at 10 mg/kg, po by LC-MS/MS analysis; format: ADME, organism-based; settings: in vivo
[19] = Tmax in mouse at 10 mg/kg, po by LC-MS/MS analysis; format: ADME, organism-based; settings: in vivo
[20] = AUC (0 to infinity) in mouse at 10 mg/kg, po by LC-MS/MS analysis; format: ADME, organism-based; design: dose 10 mg/kg, route po; settings: in vivo
[21] = Tlast in mouse at 10 mg/kg, po by LC-MS/MS analysis; format: ADME, organism-based; settings: in vivo
[22] = Half life in mouse at 1 mg/kg, ip by LC-MS/MS analysis; format: ADME, organism-based; settings: in vivo
[23] = AUC (0 to infinity) in mouse at 1 mg/kg, ip by LC-MS/MS analysis; format: ADME, organism-based; design: dose 1 mg/kg, route ip; settings: in vivo

Chain of Vimentin (Homo sapiens) (P08670 whole entry): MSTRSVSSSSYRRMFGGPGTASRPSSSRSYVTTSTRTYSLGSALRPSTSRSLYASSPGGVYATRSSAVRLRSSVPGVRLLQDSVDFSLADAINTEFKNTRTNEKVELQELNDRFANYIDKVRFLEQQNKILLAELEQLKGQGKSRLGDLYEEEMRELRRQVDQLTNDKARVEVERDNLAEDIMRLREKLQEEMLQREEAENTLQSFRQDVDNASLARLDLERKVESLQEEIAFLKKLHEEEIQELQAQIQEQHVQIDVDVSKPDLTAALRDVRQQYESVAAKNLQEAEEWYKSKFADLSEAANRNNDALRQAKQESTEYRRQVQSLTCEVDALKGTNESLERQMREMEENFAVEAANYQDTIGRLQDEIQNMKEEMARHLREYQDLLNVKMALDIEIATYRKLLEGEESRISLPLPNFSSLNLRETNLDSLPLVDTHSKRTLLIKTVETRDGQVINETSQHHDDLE

Row | SMILES | IC50 (HT-1080) [µM] | IC50 (GCT) [µM] | IC50 (RD) [µM] | IC50 (MCF7) [µM] | other results
1 | CN(C)CCOc1cc(Cl)cc(N2CCN(c3cnnc4c(Cl)cccc34)CC2)c1 | 4.72 | 6.49 | 7.02 | 16 | solubility kinetic at 16 h [1]: 131 µM (≈ 58.5 µg/mL)
2 | N#Cc1cc(Cl)cc(N2CCN(c3cnnc4c(Cl)cccc34)CC2)c1 | 0.378 | 0.189 | 0.402 | > 20 | –
3 | Oc1cc(O)cc(N2CCN(c3cnnc4c(Cl)cccc34)CC2)c1 | 0.956 | 0.656 | 1.28 | > 20 | –
4 | Clc1cc(Cl)cc(N2CCN(c3cnnc4c(Cl)cccc34)CC2)c1 | 0.412 | 0.315 | 0.623 | > 20 | –
5 | Clc1cccc(N2CCN(c3cnnc4ccccc34)CC2)c1 | > 20 | > 20 | > 20 | > 20 | –
6 | COc1ccc2c(N3CCN(c4cccc(Cl)c4)CC3)cnnc2c1Cl | > 20 | > 20 | > 20 | > 20 | –
7 | CC(=O)Nc1cc(Cl)cc(N2CCN(c3cnnc4c(Cl)cccc34)CC2)c1 | 10.8 | 10.8 | 7.41 | > 20 | –
8 | OC(O)COc1cc(Cl)cc(N2CCN(c3cnnc4c(Cl)cccc34)CC2)c1 | – | – | – | – | half-life at 100 µM ([2]; CD-1, mouse, liver microsomes): 42.7 min; microsomal CLint at 100 µM ([3]; CD-1, mouse, liver microsomes, read-out: CLH): 32.5 µL/min/mg; remaining at 1 h, 100 µM [4]: 35.7%
9 | Clc1cccc(N2CCN(c3cc(-c4ccccc4)ncn3)CC2)c1 | > 20 | > 20 | > 20 | > 20 | –
10 | Clc1cccc(N2CCN(c3ccnc4c(Cl)cccc34)CC2)c1 | > 20 | > 20 | > 20 | > 20 | Activity (Vimentin (Homo sapiens) [5]): inactive; Activity (Vimentin (Homo sapiens) [6]): inactive; Activity (Vimentin (Homo sapiens) [7]): inactive
11 | COCCOc1cc(Cl)cc(N2CCN(c3cnnc4c(Cl)cccc34)CC2)c1 | 1.7 | 1.06 | 1.35 | > 20 | solubility kinetic at 16 h [1]: < 1 µM
12 | COc1cccc(N2CCN(c3cnnc4c(Cl)cccc34)CC2)c1 | 0.598 | 0.402 | 0.884 | > 20 | –
13 | Oc1cc(Cl)cc(N2CCN(c3cnnc4c(Cl)cccc34)CC2)c1 | 0.086 | 0.057 | 0.083 | 12.1 | –
14 | Clc1cc(N2CCCC2)cc(N2CCN(c3cnnc4c(Cl)cccc34)CC2)c1 | > 20 | > 20 | > 20 | > 20 | –
15 | Clc1cccc(N2C[C@@H]3CN(c4cnnc5c(Cl)cccc45)C[C@@H]3C2)c1 | > 20 | > 20 | > 20 | > 20 | –
16 | Clc1cc(OCCN2CCOCC2)cc(N2CCN(c3cnnc4c(Cl)cccc34)CC2)c1 | > 20 | > 20 | > 20 | > 20 | solubility kinetic at 16 h [1]: < 1 µM
17 | Fc1ccc(N2CCN(c3cnnc4c(Cl)cccc34)CC2)cc1Cl | – | – | – | – | t1/2 [2]: 6.7 min; microsomal intrinsic clearance [3]: 205.8 µL/min/mg; remaining at 1 h, 100 µM [4]: 0.4%
18 | Clc1cccc(N2CCN(c3ncnc4ccccc34)CC2)c1 | > 20 | > 20 | > 20 | > 20 | –
19 | Fc1c(Cl)cc(N2CCN(c3cnnc4c(Cl)cccc34)CC2)cc1Cl | – | – | – | – | t1/2 [2]: 32.5 min; microsomal intrinsic clearance [3]: 42.6 µL/min/mg; remaining at 1 h, 100 µM [4]: 29.6%

Row | SMILES | IC50 (HT-1080) [µM] | IC50 (GCT) [µM] | IC50 (RD) [µM] | IC50 (MCF7) [µM] | other results
20 | Clc1cccc(N2CCN(c3ccnc4ccccc34)CC2)c1 | > 20 | > 20 | > 20 | > 20 | –
21 | COC(=O)CCOc1cc(Cl)cc(N2CCN(c3cnnc4c(Cl)cccc34)CC2)c1 | 0.979 | 1 | 1.12 | > 20 | t1/2 [2]: 35.5 min; microsomal intrinsic clearance [3]: 39 µL/min/mg; solubility kinetic at 16 h [1]: 82 µM (≈ 37.8 µg/mL); remaining at 1 h, 100 µM [4]: 28.9%
22 | Nc1cc(Cl)cc(N2CCN(c3cnnc4c(Cl)cccc34)CC2)c1 | 0.647 | 0.498 | 1.32 | > 20 | –
23 | Clc1cccc(N2C[C@H]3CC[C@@H](C2)N3c2cnnc3c(Cl)cccc23)c1 | 5.57 | 4.03 | 6.15 | > 20 | –
24 | COc1cccc2c(N3CCN(c4cccc(Cl)c4)CC3)cnnc12 | > 20 | > 20 | > 20 | > 20 | –
25 | Clc1cccc(N2CCN(c3ccnnc3)CC2)c1 | > 20 | > 20 | > 20 | > 20 | –
26 | Clc1cc(OCCOC2CCCCO2)cc(N2CCN(c3cnnc4c(Cl)cccc34)CC2)c1 (configuration not stated) | > 20 | > 20 | > 20 | > 20 | solubility kinetic at 16 h [1]: < 1 µM
27 | Clc1cccc(C2CCN(c3cnnc4c(Cl)cccc34)CC2)c1 | > 20 | > 20 | > 20 | > 20 | –
28 | O=C(O)CCOc1cc(Cl)cc(N2CCN(c3cnnc4c(Cl)cccc34)CC2)c1 | 1.53 | 0.756 | 1.12 | > 20 | solubility kinetic at 16 h [1]: > 200 µM
29 | OCCOc1cc(Cl)cc(N2CCN(c3cnnc4c(Cl)cccc34)CC2)c1 | 0.5 | 0.667 | 0.407 | > 20 | t1/2 [2]: 19.1 min; microsomal intrinsic clearance [3]: 72.5 µL/min/mg; solubility kinetic at 16 h [1]: 13 µM (≈ 5.45 µg/mL); remaining at 1 h, 100 µM [4]: 10.5%
30 | COc1cc(Cl)cc(N2CCN(c3cnnc4c(Cl)cccc34)CC2)c1 | 0.044 | 0.049 | 0.061 | 11.2 | AUC(0-t) [8]: 371 ng·h/mL; Tmax [9]: 15 min; Cmax [10]: 197 ng/mL; Activity (Vimentin (Homo sapiens) [11]): Active; t1/2 [2]: 1.7 min; microsomal intrinsic clearance [3]: 805.3 µL/min/mg; F [12]: 25%; Tlast [13]: 18 h; Cmax [14]: 155 ng/mL; Activity (Vimentin (Homo sapiens) [15]): Active; Activity (Vimentin (Homo sapiens) [16]): Active; AUC(0-t) [17]: 208 ng·h/mL; remaining at 1 h, 100 µM [4]: 0%; half-life [18]: 281 min; Tmax [19]: 40.2 min; AUC(0-inf) [20]: 534 ng·h/mL; Tlast [21]: 8 h; half-life [22]: 35.4 min; AUC(0-inf) [23]: 211 ng·h/mL
31 | Clc1cccc(N2CCCN(c3cnnc4c(Cl)cccc34)CC2)c1 | > 20 | > 20 | > 20 | > 20 | –
32 | Clc1cccc(N2CC3CC2CN3c2cnnc3c(Cl)cccc23)c1 (configuration not stated) | 3.23 | 8.86 | 5.6 | > 20 | –
33 | NCCOc1cc(Cl)cc(N2CCN(c3cnnc4c(Cl)cccc34)CC2)c1 | 3.89 | 3.55 | 4.58 | > 20 | t1/2 [2]: > 145 min; microsomal intrinsic clearance [3]: < 9.6 µL/min/mg; solubility kinetic at 16 h [1]: 38 µM (≈ 15.9 µg/mL); remaining at 1 h, 100 µM [4]: 78.7%
34 | C[C@H]1CN(c2cnnc3c(Cl)cccc23)CCN1c1cc(Cl)cc(Cl)c1 | 1.15 | 1.27 | 1.07 | > 20 | –
35 | CN(C)CCCOc1cc(Cl)cc(N2CCN(c3cnnc4c(Cl)cccc34)CC2)c1 | 2.72 | – | 3.69 | 4.56 | solubility kinetic at 16 h [1]: 48 µM (≈ 22.1 µg/mL)
36 | COc1cc(OC)cc(N2CCN(c3cnnc4c(Cl)cccc34)CC2)c1 | 0.037 | 0.033 | 0.033 | 15.5 | t1/2 [2]: 2.1 min; microsomal intrinsic clearance [3]: 657.4 µL/min/mg; remaining at 1 h, 100 µM [4]: 0.1%
37 | COC(COc1cc(Cl)cc(N2CCN(c3cnnc4c(Cl)cccc34)CC2)c1)OC | – | 2.93 | 19.1 | > 20 | solubility kinetic at 16 h [1]: < 1 µM
